{"source": "patent US6849645B2", "about": "“Method of increased bioavailability of nutrients and pharmaceutical preparations with tetrahydropiperine and its analogues and derivatives” (priority 2000, dated 2005)", "test": "48 hour skin patch test for irritation in humans", "format": "in vivo, human", "experimental": "In another aspect of the present invention, a study was conducted to determine whether a topical composition containing THP (98% purity), at a level of 0.01% and 0.1% by weight, which is preferred topical dose range for the compound, would produce symptoms of topical irritation. A skin patch test using THP in a petrolatum vehicle was conducted on 50 healthy volunteers for 48 hr with reading of the results after 48 hr and 72 hr. […] The irritation score was reported by the supervising physician, a practicing dermatologist, as 0. […] Based on previous experience with the parent compound, THP should not irritate the stomach mucosa at dose level of up to 50 mg per os in an adult healthy volunteer.\nThe 48 hour Repeat Insult Patch Test was used to evaluate skin irritation potential of the test compound.\n50 Male or female subjects aged between 18 and 87 years participated in the study. 5 male and 41 female subjects completed the study. The subjects were in good health and using no medications from 30 days prior to the commencement of the study.\nThe test material was applied occlusively, 0.1% w/w diluted in petrolatum. 0.2 g or 0.2 cc of the test material was dispensed into the skin of the upper back. Paper tape such as 3M Micropore™ or Kendall Tenderskin™ was used for fixation after preparation of the surrounding skin with an adhesion enhancer such as Mastitol™. The subject was instructed to avoid exposure to water or to direct sunlight during the 48 hour observation period. The tape was removed at the test facility at the end of the exposure period and evaluated by trained personnel under the supervision of the principal investigator.\nReactions were scored based on the appearance of erythema or edema immediately following removal of the patch and again at 24 hours following removal. Subjects were instructed to report any delayed reactions occurring after the final reading.", "key": {"[1]": {"settings": "THP 0.01% and 0.1% by weight in petrolatum, 48 hr patch, read after 48 hr and 72 hr"}}, "note": "Entries after “also recorded” stand apart in the source; their conditions may differ.", "data": [{"smiles": "O=C(CCCCc1ccc2c(c1)OCO2)N1CCCCC1", "note": "[Tetrahydropiperine, 1-[5-(1,3-Benzodioxol-5 yl)-1-oxo-pentanoyl]-Piperidine]", "values": [{"measurement": "skin reaction (erythema, edema, primary contact irritation)", "setting": "0.1% w/w in petrolatum, occlusive, 48 hours exposure", "result": "No erythema or edema reactions; also recorded: appears not to produce primary (contact) irritation"}, {"measurement": "irritation score", "setting": "[1]", "result": 0}, {"measurement": "skin irritation", "setting": "[1]", "result": "Neither dose caused skin irritation"}]}]}
